{
  "source": "paper PMC8058344",
  "about": "“ARIH1 signaling promotes anti-tumor immunity by targeting PD-L1 for proteasomal degradation” (Nature Communications, 2021)",
  "system": "PD-L1 in H1975 cells",
  "assay": "PD-L1 levels in H1975 cells by immunoblotting and flow cytometry",
  "type": "cell-based, human",
  "settings": "H1975 cells, 10 μM ES-072 for 12 h",
  "method": "Fig. 1 EGFR inhibitors were screened to reduce membrane PD-L1 levels. a High-throughput screening of 2125 FDA-approved drugs or drug candidates. U937 cells were incubated with IFNγ (100 ng/mL) for 48 h, treated with the drugs at 10 μM for 12 h. Ruxolitinib (Rux) was used as a positive control. The hit compounds that induced the decrease of PD-L1 levels are shown in blue. The depth of blue represents decreased level of PD-L1. The heatmap represents the targeted pathways obtained from the high-throughput screening, based upon decreased membrane PD-L1 level detected by flow cytometry. b Immunoblotting of PD-L1 in U937 cells treated with ES-072 (ES) or AZD9291 (AZD) at indicated concentrations for 12 h. ES and AZD are EGFR inhibitors. c, d Median fluorescence intensity (MFI) (c) and relative quantification (d) of PD-L1 in U937 cells treated with 10 μM ES-072 or 10 μM AZD9291 for 12 h. Data represent means ± SEM, n = 18, 6 independent repeats, ****P < 0.0001. e–g Immunoblotting (e, f) and flow cytometry (g) analysis of PD-L1 levels in U937 cells treated with 10 μM ES-072 or 10 μM AZD9291 for the indicated times. h, i Immunoblottings (h) of PD-L1 and β-TrCP, relative quantification (i) of PD-L1 MFI in H1975 cells transfected with non-targeting siRNA (si-CTRL) or β-TrCP siRNAs (si-β-TrCP) and treated with or without 10 μM ES-072/AZD9291 for 12 h. Data represent means ± SEM, n = 9, 3 independent repeats, NS: no significant; ****P < 0.0001. j–l Immunoblotting (j) and flow cytometry analysis (k) with relative quantification (l) of PD-L1 in H1975 cells treated with 10 μM ES-072 or AZD9291, and/or 5 μM LY2090314 (LY) for 12 h. […]\nFig. 5 GSK3α-mediated phosphorylation of PD-L1 promotes PD-L1-ARIH1 interaction and ARIH1-induced degradation. a Co-IP analysis for the interaction of K48-ubiquitin, ARIH1 (HA), and PD-L1 in HEK293T cells transfected with HA-ARIH1 and Flag-PD-L1 (WT, S279A, S283A, or 2SA), treated with MG132 (10 μM) for 6 h; HA-tagged empty vector (HA-EV) was transfected as a negative control. b Co-IP analysis for the interaction of ARIH1 and PD-L1 in HEK293T cells transfected with HA-ARIH1 and Flag-PD-L1 (WT or 2SA), treated with 10 μM ES-072 for 24 h, Flag-tagged empty vector (Flag-EV) was transfected as a negative control. c HEK293T cells were transfected with Flag-PD-L1. Co-IP analysis for the interaction of ubiquitin and PD-L1 in HEK293T cells transfected with ARIH1-siRNAs or HA-GSK3α and treated with MG132 (10 μM) for 6 h; non-targeting siRNA (si-CTRL) was transfected as a negative control. d Immunoblots of PD-L1 and ARIH1 (HA) in H1975 cells transfected with HA-ARIH1, treated with or without 5 μM LY for 6 h. e, f MFI (e) and relative quantification (f) of PD-L1 in HA-ARIH1-overexpressed H1975 cells, treated with or without 5 μM LY for 6 h. […]",
  "data": [
    {"smiles": "C=CC(=O)Nc1cccc(Nc2nc(Nc3ccc(N4CCN(C)CC4)nc3OC)ncc2C(F)(F)F)c1", "note": "[ES-072]", "values": [
      {"measurement": "PD-L1 level in whole cell lysate (WCL) and outer membrane protein (OMP)", "value": "decreased"}
    ]}
  ]
}
